In patent publication US9884841B2, “Small molecule inhibitors of Mcl-1 and uses thereof” (The Regents of the University of Michigan, priority 2015, dated 2018):

These compounds were tested against Mcl-1 (Homo sapiens, UniProt Q07820) (assay: FP based binding assay to Mcl-1 (Bid BH3 peptide probe)). Conditions: not given.
Chain of Mcl-1 (Q07820 whole entry): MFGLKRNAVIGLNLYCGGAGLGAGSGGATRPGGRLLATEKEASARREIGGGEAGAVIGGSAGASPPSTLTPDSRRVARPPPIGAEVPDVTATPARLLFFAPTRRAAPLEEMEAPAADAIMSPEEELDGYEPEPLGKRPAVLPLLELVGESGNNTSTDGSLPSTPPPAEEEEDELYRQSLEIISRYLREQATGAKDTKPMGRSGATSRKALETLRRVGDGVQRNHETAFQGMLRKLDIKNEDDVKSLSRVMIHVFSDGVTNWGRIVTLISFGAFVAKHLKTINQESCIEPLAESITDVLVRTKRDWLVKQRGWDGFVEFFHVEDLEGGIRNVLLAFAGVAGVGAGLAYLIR

| Mcl-1 binding, in words | SMILES |
| --- | --- |
| deleterious | O=C(O)c1ccccc1NS(=O)(=O)N1CCN(c2ccccc2)CC1 [Compound 460, 2-(1-phenylpiperazine-4-sulfonamido)benzoic acid] |

Same assay, conditions: Binding affinity of Mcl-1 inhibitors using FP based assay, Table 1

| Ki [nM] | SMILES |
| --- | --- |
| 381 ± 66 | O=C(O)c1cc(SCCc2ccccc2)ccc1NS(=O)(=O)c1ccccc1Br [Compound 386, 2-(2-bromophenylsulfonamido)-5-(phenethylthio)benzoic acid] |
| 2240 ± 431 | O=C(CCSc1ccc(NS(=O)(=O)N2CCN(c3ccccc3)CC2)c(C(=O)O)c1)Nc1ccccc1 [Compound 429] |
| 44 ± 14 | O=C(O)c1cc(SCCc2ccccc2)ccc1NS(=O)(=O)c1ccc(Oc2ccccc2)cc1 [Compound 376, 5-(Phenethylthio)-2-(4-phenoxyphenylsulfonamido)benzoic acid] |
| 13 ± 3 | CC(C)c1cc(NS(=O)(=O)c2ccc(Oc3ccccc3)cc2)c(C(=O)O)cc1-c1ccc(COc2cccc(C(F)(F)F)c2)cc1 [Compound 477, 6-isopropyl-4-(4-phenoxyphenylsulfonamido)-4′-((3-(trifluoromethyl)phenoxy)methyl)-[1,1′-biphenyl]-3-carboxylic acid] |
| 10 ± 3 | CC(C)c1cc(NS(=O)(=O)c2ccc(Oc3ccc(F)cc3)cc2)c(C(=O)O)cc1-c1ccc(COc2cccc(C(F)(F)F)c2)cc1 [Compound 480, 4-(4-(4-fluorophenoxy)phenylsulfonamido)-6-isopropyl-4′-((3-(trifluoromethyl)phenoxy)methyl)-[1,1′-biphenyl]-3-carboxylic acid] |
| 343 ± 33 | O=C(O)c1cc(SCCc2ccccc2)ccc1NS(=O)(=O)CCc1ccccc1 [Compound 443, 5-(phenethylthio)-2-(2-phenylethylsulfonamido)benzoic acid] |
| > 2000 | O=C(O)c1ccccc1NS(=O)(=O)c1ccccc1 [Compound 455, 2-(phenylsulfonamido)benzoic acid] |
| 23 ± 3 | CC(C)c1cc(NS(=O)(=O)c2ccc3ccccc3c2)c(C(=O)O)cc1-c1ccc(COc2cccc(C(F)(F)F)c2)cc1 [Compound 474, 6-isopropyl-4-(naphthalene-2-sulfonamido)-4′-((3-(trifluoromethyl)phenoxy)methyl)-[1,1′-biphenyl]-3-carboxylic acid] |
| 275 ± 21 | O=C(O)c1cc(SCCc2ccccc2)ccc1NS(=O)(=O)N1CCN(Cc2ccccc2)CC1 [Compound 414, 2-(1-benzylpiperazine-4-sulfonamido)-5-(phenethylthio)benzoic acid] |
| 36 ± 6 | O=C(O)c1cc(-c2ccc(COc3cccc(C(F)(F)F)c3)cc2)ccc1NS(=O)(=O)c1ccc2ccccc2c1 [Compound 471, 4-(naphthalene-2-sulfonamido)-4′-((3-(trifluoromethyl)phenoxy)methyl)-[1,1′-biphenyl]-3-carboxylic acid] |
| 387 ± 138 | O=C(O)c1cc(SCc2ccccc2)ccc1NS(=O)(=O)N1CCN(c2ccccc2)CC1 [Compound 456, 5-(benzylthio)-2-(1-phenylpiperazine-4-sulfonamido)benzoic acid] |
| 200 ± 30 | O=C(O)c1cc(SCCc2ccccc2)ccc1NS(=O)(=O)N1CCN(c2ccccc2)CC1 [Compound 396, 5-(Phenethylthio)-2-(1-phenylpiperazine-4-sulfonamido)benzoic acid] |
| 1160 ± 196 | Nc1ccc(-c2ccccc2COc2cccc(C(F)(F)F)c2)cc1C(=O)O [Compound 467, 4-amino-2′-((3-(trifluoromethyl)phenoxy)methyl)-[1,1′-biphenyl]-3-carboxylic acid] |
| > 2000 | COC(=O)c1cc(-c2ccc(COc3cccc(C(F)(F)F)c3)cc2)c(C(C)C)cc1NC(=O)c1ccc(Oc2ccccc2)cc1 [Compound 486, methyl 6-isopropyl-4-(4-phenoxybenzamido)-4′-((3-(trifluoromethyl)phenoxy)methyl)-[1,1′-biphenyl]-3-carboxylate] |
| 79 ± 25 | O=C(O)c1cc(SCCc2ccccc2)ccc1NS(=O)(=O)c1ccccc1-c1ccccc1 [Compound 458, 2-([1,1′-biphenyl]-2-ylsulfonamido)-5-(phenethylthio)benzoic acid] |
| > 2000 | COC(=O)c1cc(-c2ccc(COc3cccc(C(F)(F)F)c3)cc2)c(C(C)C)cc1NS(=O)(=O)c1ccc(Oc2ccc(F)cc2)cc1 [Compound 481, methyl 4-(4-(4-fluorophenoxy)phenylsulfonamido)-6-isopropyl-4′-((3-(trifluoromethyl)phenoxy)methyl)-[1,1′-biphenyl]-3-carboxylate] |
| 241 ± 89 | O=C(O)c1cc(SCCc2ccccc2)ccc1NS(=O)(=O)Cc1ccc(Cl)cc1 [Compound 398] |
| > 2000 | COC(=O)c1cc(-c2ccc(COc3cccc(C(F)(F)F)c3)cc2)c(C(C)C)cc1NS(=O)(=O)c1ccc2ccccc2c1 [Compound 482, methyl 6-isopropyl-4-(naphthalene-2-sulfonamido)-4′-((3-(trifluoromethyl)phenoxy)methyl)-[1,1′-biphenyl]-3-carboxylate] |
| 2360 ± 80 | Nc1ccc(-c2ccc(COc3cccc(C(F)(F)F)c3)cc2)cc1C(=O)O [Compound 469, 4-amino-4′-((3-(trifluoromethyl)phenoxy)methyl)-[1,1′-biphenyl]-3-carboxylic acid] |
| 94 ± 17 | CCCc1ccc(-c2ccc(NS(=O)(=O)c3ccc4ccccc4c3)c(C(=O)O)c2)cc1 [Compound 466, 4-(naphthalene-2-sulfonamido)-4′-propyl-[1,1′-biphenyl]-3-carboxylic acid] |

| Ki [nM] | SMILES |
| --- | --- |
| 70 ± 21 | CC(C)c1cc(NS(=O)(=O)c2ccc3ccccc3c2)c(C(=O)O)cc1SCCc1ccccc1 [Compound 478, 4-isopropyl-2-(naphthalene-2-sulfonamido)-5-(phenethylthio)benzoic acid] |
| 5740 ± 749 | O=C(O)c1cc(NCCc2ccccc2)ccc1NS(=O)(=O)c1ccccc1 [Compound 404, 5-(phenethylamino)-2-(phenylsulfonamido)benzoic acid] |
| 50 ± 11 | O=C(O)c1cc(-c2ccccc2COc2cccc(C(F)(F)F)c2)ccc1NS(=O)(=O)c1ccc2ccccc2c1 [Compound 468, 4-(naphthalene-2-sulfonamido)-2′-((3-(trifluoromethyl)phenoxy)methyl)-[1,1′-biphenyl]-3-carboxylic acid] |
| 2360 ± 116 | O=C(O)c1ccc(SCCc2ccccc2)cc1NS(=O)(=O)c1ccccc1 [Compound 702, 4-(Phenethylthio)-2-(phenylsulfonamido)benzoic acid] |
| 233 ± 21 | O=C(CCSc1ccc(NS(=O)(=O)c2ccccc2)c(C(=O)O)c1)Nc1ccccc1 [Compound 410] |
| 42 ± 17 | CC(C)(C)c1ccc(N2CCN(C(=O)CCc3cccc(-c4ccc(C(=O)O)c(NS(=O)(=O)N5CCN(c6ccc(C(C)(C)C)cc6)CC5)c4)c3)CC2)cc1 [Compound 484] |
| 66 ± 27 | Cc1cccc(-c2cc(NS(=O)(=O)N3CCN(c4ccc(C(C)(C)C)cc4)CC3)c(C(=O)O)cc2SCCC(=O)Nc2ccccc2)c1 [Compound 479] |
| 31 ± 10 | O=C(O)c1cc(SCCc2ccccc2)ccc1NS(=O)(=O)c1ccc(C2CCCCC2)cc1 [Compound 418, 2-(4-cyclohexylphenylsulfonamido)-5-(phenethylthio)benzoic acid] |
| > 2000 | O=C(O)c1ccccc1NS(=O)(=O)N1CCN(c2ccccc2)CC1 [Compound 460, 2-(1-phenylpiperazine-4-sulfonamido)benzoic acid] |
| 35 ± 13 | CC(C)c1cc(NS(=O)(=O)c2ccc(Oc3ccccc3)cc2)c(C(=O)O)cc1SCCc1ccccc1 [Compound 476, 4-isopropyl-5-(phenethylthio)-2-(4-phenoxyphenylsulfonamido)benzoic acid] |
| 874 ± 246 | O=C(CCc1ccccc1)Nc1ccc(SCCc2ccccc2)cc1C(=O)O [Compound 454, 5-(phenethylthio)-2-(3-phenylpropanamido)benzoic acid] |
| > 2000 | O=C(CSc1ccc(NS(=O)(=O)c2ccccc2)c(C(=O)O)c1)Nc1ccccc1 [Compound 395] |
| 245 ± 48 | CC(C)(C)c1ccc(N2CCN(S(=O)(=O)Nc3ccc(SCCC(=O)Nc4ccccc4)cc3C(=O)O)CC2)cc1 [Compound 435] |
| 1450 ± 132 | Nc1ccc(SCCc2ccccc2)cc1C(=O)O [Compound 416, 2-Amino-5-(phenethylthio)benzoic acid] |
| 31 ± 9 | O=C(O)c1cc(-c2ccccc2COc2cccc3ccccc23)ccc1NS(=O)(=O)c1ccc2ccccc2c1 [Compound 473, 2′-((naphthalen-1-yloxy)methyl)-4-(naphthalene-2-sulfonamido)-[1,1′-biphenyl]-3-carboxylic acid] |
| 48 ± 12 | O=C(O)c1cc(SCCc2ccccc2)ccc1NS(=O)(=O)c1ccc(-c2ccccc2)cc1 [Compound 378, 2-([1,1′-biphenyl]-4-ylsulfonamido)-5-(phenethylthio)benzoic acid] |
| 891 ± 185 | O=C(Nc1ccc(SCCc2ccccc2)cc1C(=O)O)c1ccccc1 [Compound 364, 2-Benzamido-5-(phenethylthio)benzoic acid] |
| > 2000 | O=C(O)c1ccccc1NS(=O)(=O)c1ccc2ccccc2c1 [Compound 453, 2-(naphthalene-2-sulfonamido)benzoic acid] |
| 993 ± 178 | O=C(O)c1cc(SCc2ccccc2)ccc1NS(=O)(=O)c1ccccc1 [Compound 392, 5-(Benzylthio)-2-(phenylsulfonamido)benzoic acid] |
| 437 ± 67 | Cc1cccc(-c2cc(NS(=O)(=O)c3ccccc3)c(C(=O)O)cc2SCCC(=O)Nc2ccccc2)c1 [Compound 485] |

Same assay, conditions: R1 optimisation starting from 368

| improvement of binding potency [fold] | SMILES |
| --- | --- |
| 16 | O=C(O)c1cc(SCCc2ccccc2)ccc1NS(=O)(=O)c1ccc(-c2ccc(Cl)cc2)cc1 [Compound 380, 2-(4′-chloro-[1,1′-biphenyl]-4-ylsulfonamido)-5-(phenethylthio)benzoic acid] |

Same assay, conditions: binding affinity to Mcl-1

| Ki [nM] | SMILES |
| --- | --- |
| 27 ± 5 | O=C(O)c1cc(-c2ccc(COc3cccc4ccccc34)cc2)ccc1NS(=O)(=O)c1ccc2ccccc2c1 [Compound 475, 4′-((naphthalen-1-yloxy)methyl)-4-(naphthalene-2-sulfonamido)-[1,1′-biphenyl]-3-carboxylic acid] |
| 31 | O=C(O)c1cc(SCCc2ccccc2)ccc1NS(=O)(=O)c1ccc(-c2ccc(Cl)cc2)cc1 [Compound 380, 2-(4′-chloro-[1,1′-biphenyl]-4-ylsulfonamido)-5-(phenethylthio)benzoic acid] |

Same assay, conditions: relative to 382

| improvement in comparison with 382 [fold] | SMILES |
| --- | --- |
| 6 | O=C(O)c1cc(-c2ccc(COc3cccc4ccccc34)cc2)ccc1NS(=O)(=O)c1ccc2ccccc2c1 [Compound 475, 4′-((naphthalen-1-yloxy)methyl)-4-(naphthalene-2-sulfonamido)-[1,1′-biphenyl]-3-carboxylic acid] |
| 2.5 | CC(C)c1cc(NS(=O)(=O)c2ccc3ccccc3c2)c(C(=O)O)cc1SCCc1ccccc1 [Compound 478, 4-isopropyl-2-(naphthalene-2-sulfonamido)-5-(phenethylthio)benzoic acid] |
